Here are results for 1 compound from patent US7504537B2, “Hydroxamic acid derivative and MMP inhibitor containing the same as active ingredient” (Dainippon Sumitomo Pharma Co., Ltd., priority 2001, dated 2009).

Molecules are shown by their SMILES.

In experiment [1] the target is T1, MMP-2 (Homo sapiens, UniProt P08253).
T1 construct: purchased Boeringer Manheim (Roche Diagnostics)
T1 sequence (P08253 110-660): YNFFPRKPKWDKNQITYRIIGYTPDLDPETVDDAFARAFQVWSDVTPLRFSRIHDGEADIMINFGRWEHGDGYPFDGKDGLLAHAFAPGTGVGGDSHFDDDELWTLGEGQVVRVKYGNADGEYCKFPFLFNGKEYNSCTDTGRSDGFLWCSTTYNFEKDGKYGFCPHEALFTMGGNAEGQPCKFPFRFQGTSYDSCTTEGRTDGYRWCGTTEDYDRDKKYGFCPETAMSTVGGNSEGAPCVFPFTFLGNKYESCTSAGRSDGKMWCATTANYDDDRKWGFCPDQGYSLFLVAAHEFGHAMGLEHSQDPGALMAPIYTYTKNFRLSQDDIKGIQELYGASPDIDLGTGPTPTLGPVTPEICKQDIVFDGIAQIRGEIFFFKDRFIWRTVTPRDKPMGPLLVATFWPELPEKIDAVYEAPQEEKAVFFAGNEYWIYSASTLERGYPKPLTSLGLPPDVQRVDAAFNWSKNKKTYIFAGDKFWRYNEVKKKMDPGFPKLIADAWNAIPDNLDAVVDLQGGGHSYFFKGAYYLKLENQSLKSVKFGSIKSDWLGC
Briefly: Test 3 MMP-2 inhibition activity test (gelatinase activity assay kit). The note with it: activated human MMP-2, biotin labeled gelatin. Type of experiment: biochemical. On the procedure:
TTC buffer solution was attached to a MMP-2 enzyme assay kit, and the solution was made of 50 mM tris, 1 mM calcium chloride solution and 0.05% Triton X-100 solution, and was adjusted to pH 7.5.
Test 3 MMP-2 Inhibition Activity Test
MMP-2 enzyme assay kit (Gelatinase Activity Assay, Roche.Diagonistics) was used.
A mixture of 1.2U human MMP-2 (20 μl, Boeringer Manheim 30U freezed dry product), TTC buffer (980 μl) and 2.5 mM 4-aminophenyl mercuric acetate solution (144 μl) was incubated at 37° C. for 30 minutes and then it was preserved under ice cooling until use.
A mixture of DMSO solution (2 μl) containing a definite concentration of the compound, biotin labeled gelatin (188 μl) and activated MMP-2 solution (10 μl) was put on a 96 well-assay plate (protein nonabsorbance type), well agitated and incubated at 37° C. for 1 hour. This solution was transferred to a Streptavidin-coating plate and agitated at 15° C, to 30° C. for 30 minutes. And then the solution was washed with TTC buffer solution (200 μl) three times. Thereto was added Streptavidin-POD (200 μl) and the mixture was agitated at 15° C. to 25° C. for 60 minutes, followed by washing with TTC buffer (200 μl) three times. Then, ABTS solution (200 μl) was added thereto and after standing at room temperature for 40 minutes, furuorescence intensity was measure at 405 nm and IC50 was calculated.
In case of the above test, a control and a blank were prepared when the well was prepared as mentioned below. DMSO (2 μl) was used as a control instead of a sample solution. In the case of a blank, DMSO (2 μl) instead of the sample solution and the solution (10 μl) prepared in the same manner as preparation of activated MMP-2 solution but without adding 1.2U human MMP-2, instead of activated MMP-2 solution (10 μl), were used.

Experiment [2] addresses T2, MMP-14 (MT1-MMP) (Homo sapiens, UniProt P50281).
T2 construct: purchased Biogenesis, supplied by Cosmobio (Nakarai Tesku)
Kind of experiment: Test 5 MMP-14 (MT1-MMP) inhibiting activity test. In kind it is biochemical. Particulars: human recombinant MT1-MMP, 37° C.; read-out: MMP-14 inhibition activity value. The method, then: Test 5 MMP-14 (MTI-MMP) Inhibiting Activity Test
Human recombinant MTI-MMP used the product prepared by Biogenesis and supplied by Cosmobio (Nakarai Tesku).
An assay buffer solution (70 μl, pH 7.5 solution containing 0.1M Tris-HCl solution, 0.1M calcium chloride solution, 10 mM sodium chloride solution and 0.05% Brij-35 solution), 0.1 w/w % a compound in DMSO (10 μl), MMP substrate solution (MOCAc-Pro-Leu-Gly-Leu-A2pr(DNP)-Ala-Arg-NH2 (Peptide Lab.) diluted with the assay buffer solution (50 μM, 10 μl)) and human recombinant MT1-MMP (0.4 pg/10 μl/well) were well agitated under stirring. The enzyme activity of the mixture was measured based on fluorescence intensity (λex 320 nm/λem 405 nm) by a fluorescence reader. After the mixture was incubated at 37° C. for 0.5 hour, the fluorescence intensity (λex 320 nm/λem 405 nm) was measured every hour, and IC50 was calculated.
The inhibition value was calculated by withdrawing average value of blank well from fluorescence mean value of well in which MT1-MMP was added. As the blank was used the mixed solution prepared by adding assay buffer (10 μl) instead of MT1-MMP solution.

As for `COCCN(CC(=O)NO)S(=O)(=O)c1ccc(Oc2ccc(S(C)(=O)=O)cc2)cc1` [Example 44, N^1-Hydroxy-N^2-(2-methoxyethyl)-N^2-({4-[4-(methylsulfonyl)phenoxy]phenyl}sulfonyl)glycinamide], the IC50 in experiment [1] was greater than 100 nM; in experiment [2] it was 343 nM.
